# Results reported in article PMC12257542, “A Radiolabeled Photoswitchable G Protein-Coupled Receptor Antagonist Enlightens Ligand Binding Kinetics Associated with Photoswitching” (Journal of the American Chemical Society, 2025).
# Like-named read-outs stand apart in the source and are kept apart here.
# Columns and labels:
# mouse H3R = target: T1, mouse H3R (Mus musculus, UniProt P58406); assay: [3H]NAMH competition radioligand binding on mH3R-expressing cell homogenates
# T1 construct: expressed in transfected cells; host or cells: HEK293T, transient transfection (pcDEF3), cell homogenates
# T1 sequence (P58406 whole entry): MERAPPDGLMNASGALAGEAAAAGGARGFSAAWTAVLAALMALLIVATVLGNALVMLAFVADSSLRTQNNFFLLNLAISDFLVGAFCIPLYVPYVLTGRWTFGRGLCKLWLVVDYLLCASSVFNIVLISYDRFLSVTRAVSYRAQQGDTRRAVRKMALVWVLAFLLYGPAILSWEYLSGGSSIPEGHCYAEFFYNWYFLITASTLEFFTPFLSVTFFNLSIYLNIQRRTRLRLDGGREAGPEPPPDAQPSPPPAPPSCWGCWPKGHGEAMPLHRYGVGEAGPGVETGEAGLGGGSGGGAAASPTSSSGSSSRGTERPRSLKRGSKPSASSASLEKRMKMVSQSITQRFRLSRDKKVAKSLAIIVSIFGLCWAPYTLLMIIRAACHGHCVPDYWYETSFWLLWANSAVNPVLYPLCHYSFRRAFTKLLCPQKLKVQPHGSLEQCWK
# Description: Figure S15. Histamine receptor selectivity binding experiments. Concentration binding curves of trans-3f on cell homogenates expressing H1R (in competition with 4.0-4.8 nM [3H]mepyramine) or H4R (competition with 1.9-2.4 nM [3H]histamine. H2R binding was […]
# KAT478). Pooled data of three independent experiments are shown as mean ± SEM.
# Figure S16. Radioligand binding experiments with 3f on mH3R-expressing cell homogenates in competition with [3H]NAMH (1.4-1.7 nM). Pooled data of three independent experiments […]
# Experimental procedures - Pharmacology […]
# were purchased from Promega.
# HEK293T cells stably expressing
# 48 hours post transfection,
# [3H]3f binding experiments […]
# by sonication (Sonifier Branson).
# RT) containing 0.8% ethanol.
# The incubation was terminated by
# H2R selectivity was assessed
# Cells were incubated with ligands
# [1] = Detailed photochemical characterization of 3f (1H NMR, UV-vis switching cycles); type: physicochemical
# Description: Figure S10. Photochemical properties of 3f. (A) UV-vis spectra of 25 µM 3f in HBSS buffer containing 1% DMSO in the dark, after illumination to PSScis with 365 ± 10 nm for 2 min and after subsequent illumination to PSStrans with 506 ± 20 nm for 2 min. (B) Representative parts of LC−MS chromatograms of 3f in the dark, after illumination with 365 ± 10 nm for 300 s to reach PSScis and subsequently with 506 ± 20 nm for 300 s to reach PSStrans (full chromatograms […]
# (C) Part of 1H NMR spectra of 10 mM 3f in DMSO-d6 (representing the two aromatic signals) in the dark, after illumination with 365 ± 10 nm for 600 s to reach PSScis and subsequently 506 ± 20 nm for 900 s to reach PSStrans (full spectra are shown in Figure S12). (D) Reversible isomerization cycles of 25 µM 3f in HBSS buffer containing 1% DMSO, repeatedly illuminated for 30 s with 365 ± 10 nm to reach PSScis and subsequently for […]
# 60 s with 506 ± 20 nm to reach PSStrans. […]
# states in the 400-550 nm area (Figure S10A). This allows efficient trans-PSScis photoswitching in HBSS buffer using UV light (365 nm) and PSScis-PSStrans back-switching with green light (506 nm). LC-MS analysis (Figure S10B, S11) and, more quantitively, 1H NMR analysis (Figure S10C, S12) reveal high PSScis and PSStrans values for 3f (98% and >95% cis isomer for PSScis by LC-MS and 1H NMR analysis, respectively; 93% and 93% trans isomer for PSStrans by LC-MS and 1H NMR analysis, respectively). These analyses also confirmed that no photodecomposition occurs upon illumination with either 365 or 506 nm. Reversible isomerization cycles could be conducted in HBSS buffer without any photobleaching (Figure […]
# S10D). […] Subsequently, the […]
# UV−Vis spectra were recorded using a Thermo-scientific Evolution 201 PC spectrophotometer equipped with a thermostated cell holder set at 20 °C. […] The light intensity used for the lambda 10-3 optical filter is 0.93 mW/mm2 using the 360 ± 20 nm filter, 0.79 mW/mm2 for the 434 ± 9 nm filter, 0.77 mW/mm2 for the 494 ± 9 nm filter as measured using a Thorlabs PM16−401 power meter. […]
# Nluc-H2R = Nluc-H2R (Homo sapiens, UniProt P25021); type: binding; conditions: trans isomer; at concentrations lower than 1 μM; competition with 50 nM UR-KAT478
# Nluc-H2R, sequence (P25021 whole entry): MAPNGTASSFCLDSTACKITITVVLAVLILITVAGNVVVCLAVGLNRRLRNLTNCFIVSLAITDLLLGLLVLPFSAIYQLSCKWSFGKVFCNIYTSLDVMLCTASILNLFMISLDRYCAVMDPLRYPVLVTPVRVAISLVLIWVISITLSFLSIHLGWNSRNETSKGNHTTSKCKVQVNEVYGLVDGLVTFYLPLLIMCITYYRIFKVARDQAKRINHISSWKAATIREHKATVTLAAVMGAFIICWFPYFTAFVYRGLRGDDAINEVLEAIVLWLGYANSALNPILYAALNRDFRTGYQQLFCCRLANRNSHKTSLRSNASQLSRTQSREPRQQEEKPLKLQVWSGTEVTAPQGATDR
# H3R = H3R (Homo sapiens, UniProt Q9Y5N1); assay: Functional H3R NanoBiT-PKA (cAMP sensor) assay in transiently transfected HEK293T cells; type: cell-based
# H3R, sequence (Q9Y5N1 whole entry): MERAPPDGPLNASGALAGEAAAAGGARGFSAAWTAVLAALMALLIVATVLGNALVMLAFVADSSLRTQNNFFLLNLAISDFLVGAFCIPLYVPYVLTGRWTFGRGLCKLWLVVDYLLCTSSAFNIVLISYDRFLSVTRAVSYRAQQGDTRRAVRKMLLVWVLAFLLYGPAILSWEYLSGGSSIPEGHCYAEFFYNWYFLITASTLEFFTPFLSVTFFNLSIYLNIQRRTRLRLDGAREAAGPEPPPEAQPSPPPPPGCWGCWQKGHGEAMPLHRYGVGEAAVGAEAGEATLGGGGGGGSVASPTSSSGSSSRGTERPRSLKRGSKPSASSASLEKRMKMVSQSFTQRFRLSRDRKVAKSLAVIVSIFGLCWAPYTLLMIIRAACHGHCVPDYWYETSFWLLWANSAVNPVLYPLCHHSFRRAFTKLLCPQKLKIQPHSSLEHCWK
structure (smiles),measurement,setting,value
Cc1nn(C2CCN(C)CC2)c(C)c1/N=N/c1ccc(O[C@H]2C[C@H](N3CCCCC3)C2)cc1 [Compound 3f],Ki,"mouse H3R; trans isomer, [3H]NAMH (1.4-1.7 nM), read-out: pKi mouse H3R (converted)",1.58 nM
same,fold shift in affinity upon photoisomerization to PSS cis (mouse H3R),mouse H3R; trans versus PSS cis,42 fold
same,PSScis (% cis isomer) by 1H NMR,"[1]; 10 mM in DMSO-d6, 365 ± 10 nm for 600 s",> 95%
same,PSStrans (% trans isomer) by 1H NMR,"[1]; 10 mM in DMSO-d6, 506 ± 20 nm for 900 s",93%
same,photodecomposition upon illumination,"[1]; illumination with either 365 or 506 nm, LC-MS and 1H NMR",no
same,binding to H2R,Nluc-H2R,does not bind
same,block of the H3R agonist response,"H3R; 100 nM trans-3f preincubated, 10 nM immethridine, dark",approximately 80%
same,"reversal of the response, % of the maximal agonist response","H3R; 100 nM trans-3f, 10 nM immethridine, after 365 nm LED light 10 min, 2 mW",approximately 80%
same,IC50,"H3R; 365 nm 10 min (second cycle), 10 nM immethridine, read-out: pIC50, dynamic trans-3f switching step 4 (converted)",398 nM
same,IC50,"H3R; 365 nm 10 min, 10 nM immethridine, read-out: pIC50, dynamic trans-3f switching step 2 (converted)",794 nM
same,IC50,"H3R; 500 nm 10 min (second cycle), 10 nM immethridine, read-out: pIC50, dynamic trans-3f switching step 5 (converted)",50.1 nM
same,IC50,"H3R; 500 nm 10 min, 10 nM immethridine, read-out: pIC50, dynamic trans-3f switching step 3 (converted)",50.1 nM
same,IC50,"H3R; PSS cis (pre-illuminated trans-3f), competition with 10 nM immethridine, 15 min incubation, read-out: pIC50 3f-PSScis (converted)",398 nM
same,IC50,"H3R; no irradiation (dark), 10 nM immethridine, read-out: pIC50, dynamic trans-3f switching step 1 (converted)",20 nM
same,IC50,"H3R; trans isomer, competition with 10 nM immethridine, 15 min incubation, read-out: pIC50 trans-3f (converted)",31.6 nM
same,Fold IC50 shift,H3R; trans-3f versus 3f-PSS cis,12.6 fold
